Key:
Experiment in all cases: relative viability (nuclei count vs DMSO), 5 days (fraction); higher = more cells survive
MK-8033 + Trametinib = compound: Cn1cc(-c2cnc3ccc4ccc(CS(=O)(=O)NCc5ccccn5)cc4c(=O)c3c2)cn1 [MK-8033] + CC(=O)Nc1cccc(-n2c(=O)n(C3CC3)c(=O)c3c(Nc4ccc(I)cc4F)n(C)c(=O)c(C)c32)c1 [Trametinib] (partner 0.02 µM)
Procedure, shortened: (§1)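 Lung cancer cell lines were seeded in 1536-well plates and dosed by pin tool the next day, with either a single drug or a fixed anchor-drug dose combined with five library-drug doses (not always all listed) spaced in √10 steps. Five days later, one step fixed the cells and stained their nuclei (final 0.05% Triton X-100, 1% formaldehyde, 1 ug/ml Hoechst), and nuclei were counted on 4× images. Relative viability is the nuclei count in treated wells divided by the count in vehicle wells, and each value is the median of duplicate plates.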

RU-SKI 43 + Olaparib = compound: CC[C@@H](C)CNCC(=O)N1CCC2=C([C@@H]1COC3=CC=CC(=C3)C)C=CS2 [RU-SKI 43] + O=C(c1cc(Cc2n[nH]c(=O)c3ccccc23)ccc1F)N1CCN(C(=O)C2CC2)CC1 [Olaparib] (partner 8 µM)
Procedure, shortened: as §1

Irinotecan + Pictilisib = compound: CCc1c2c(nc3ccc(OC(=O)N4CCC(N5CCCCC5)CC4)cc13)-c1cc3c(c(=O)n1C2)COC(=O)[C@]3(O)CC [Irinotecan] + CS(=O)(=O)N1CCN(Cc2cc3nc(-c4cccc5[nH]ncc45)nc(N4CCOCC4)c3s2)CC1 [Pictilisib] (partner 1 µM)
Procedure, shortened: as §1

Irinotecan + Pemetrexed = compound: CCc1c2c(nc3ccc(OC(=O)N4CCC(N5CCCCC5)CC4)cc13)-c1cc3c(c(=O)n1C2)COC(=O)[C@]3(O)CC [Irinotecan] + Nc1nc2[nH]cc(CCc3ccc(C(=O)N[C@@H](CCC(=O)O)C(=O)O)cc3)c2c(=O)[nH]1 [Pemetrexed] (partner 0.2 µM)
Procedure, shortened: as §1

| Cell Line | relative viability (MK-8033 + Trametinib; first compound 0.02 µM) | relative viability (MK-8033 + Trametinib; first compound 0.06325 µM) | relative viability (MK-8033 + Trametinib; first compound 0.2 µM) | relative viability (MK-8033 + Trametinib; first compound 0.6325 µM) | relative viability (MK-8033 + Trametinib; first compound 2 µM) | relative viability (RU-SKI 43 + Olaparib; first compound 0.1 µM) | relative viability (RU-SKI 43 + Olaparib; first compound 0.3162 µM) | relative viability (RU-SKI 43 + Olaparib; first compound 1 µM) | relative viability (RU-SKI 43 + Olaparib; first compound 3.162 µM) | relative viability (RU-SKI 43 + Olaparib; first compound 10 µM) | relative viability (Irinotecan + Pictilisib; first compound 0.6325 µM) | relative viability (Irinotecan + Pictilisib; first compound 2 µM) | relative viability (Irinotecan + Pictilisib; first compound 6.325 µM) | relative viability (Irinotecan + Pictilisib; first compound 20 µM) | relative viability (Irinotecan + Pemetrexed; first compound 0.6325 µM) | relative viability (Irinotecan + Pemetrexed; first compound 2 µM) | relative viability (Irinotecan + Pemetrexed; first compound 6.325 µM) | relative viability (Irinotecan + Pemetrexed; first compound 20 µM) |
| --- | --- | --- | --- | --- | --- | --- | --- | --- | --- | --- | --- | --- | --- | --- | --- | --- | --- | --- |
| NCI-H1651 | 0.823 | 0.846 | 0.845 | 0.809 | 0.861 | 0.16 | 0.188 | 0.195 | 0.213 | 0.185 | 0.427 | 0.425 | 0.175 | 0.108 | 0.25 | 0.638 | 0.356 | 0.147 |
| CAL-12T | 0.347 | 0.297 | 0.31 | 0.413 | 0.329 | 0.709 | 0.804 | 0.855 | 0.666 | 0.698 | 0.4 | 0.396 | 0.443 | 0.327 | 1.14 | 0.995 | 0.355 | 0.234 |
| NCI-H2126 | 0.542 | 0.554 | 0.525 | 0.585 | 0.569 | 0.903 | 1.07 | 0.936 | 0.845 | 0.865 |  | 0.41 | 0.286 | 0.335 | 0.414 | 0.606 | 0.456 | 0.383 |
| NCI-H650 | 1.06 | 1.02 | 0.973 | 0.939 | 0.884 | 0.404 | 0.517 |  | 0.38 | 0.406 | 0.798 | 0.297 | 0.294 | 0.307 | 0.749 | 0.838 | 0.229 | 0.201 |
| COR-L 105 | 0.514 | 0.392 | 0.427 | 0.434 | 0.356 | 0.658 | 0.57 | 0.815 | 0.683 | 0.603 | 0.309 | 0.515 | 0.411 | 0.231 | 1.35 | 0.93 | 0.649 | 0.442 |
| LK-2 | 0.668 | 0.687 | 0.688 | 0.849 | 0.766 | 0.808 | 0.639 | 0.788 | 0.612 | 0.75 | 0.558 | 0.58 | 0.34 | 0.294 | 0.227 | 0.343 | 0.182 | 0.336 |
| NCI-H2347 | 0.326 | 0.344 | 0.295 | 0.287 | 0.281 | 0.547 | 0.499 | 0.553 | 0.504 | 0.569 | 0.542 | 0.355 | 0.36 | 0.461 | 0.429 | 0.427 | 0.342 | 0.427 |
| PC-14 | 0.723 | 0.604 | 0.649 | 0.774 | 0.654 | 0.22 | 0.174 | 0.294 | 0.263 | 0.401 | 0.652 | 0.425 | 0.257 | 0.194 | 0.155 | 0.175 | 0.136 | 0.111 |
| NCI-H1793 | 0.425 |  | 0.362 | 0.447 | 0.361 | 0.744 | 0.558 | 1.02 | 0.833 | 0.719 |  | 0.259 | 0.189 | 0.29 |  | 0.699 | 0.395 | 0.253 |

From the supplement of paper PMC10307832
